# Results as given in article PMC6891286, “Towards the Development of an In vivo Chemical Probe for Cyclin G Associated Kinase (GAK)” (Molecules, 2019).
# Assays:
# Test in all cases: KINOMEscan
# Format in all cases: binding
# AKT3 = target: T1, AKT3 (Homo sapiens, UniProt Q9Y243); settings: 35 at 1 µM; read-out: % inhibition
# T1 construct: purchased Eurofins DiscoverX (KINOMEscan)
# Procedure: (§1) KinomeScan Assay on 35 was performed as previously described at EuroFins DiscoverX (Fremont, CA, USA).
# PLK2 = target: T2, PLK2 (Homo sapiens, UniProt Q9NYY3); settings: 35 at 1 µM; read-out: % inhibition
# T2 construct: purchased Eurofins DiscoverX (KINOMEscan)
# Procedure: as §1
# CAMKK1 = target: T3, CAMKK1 (Homo sapiens, UniProt Q8N5S9); settings: 35 at 1 µM; read-out: % inhibition
# T3 construct: purchased Eurofins DiscoverX (KINOMEscan)
# Procedure: as §1
# RET(V804M) = target: T4, RET(V804M) (Homo sapiens, UniProt P07949, V804M); settings: 35 at 1 µM; read-out: % inhibition
# T4 construct: purchased Eurofins DiscoverX (KINOMEscan)
# Procedure: as §1
# RIPK2 = target: T5, RIPK2 (Homo sapiens, UniProt O43353)
# T5 construct: purchased Eurofins DiscoverX (KINOMEscan)
# Procedure: as §1
# SIK2 = target: T6, SIK2 (Homo sapiens, UniProt Q9H0K1); settings: 35 at 1 µM; read-out: % inhibition
# T6 construct: purchased Eurofins DiscoverX (KINOMEscan)
# Procedure: as §1
# [1] = target: T7, ABL1(F317I)-phosphorylated (Homo sapiens, UniProt P00519, F317I); settings: 35 at 1 µM; read-out: % inhibition
# T7 construct: purchased Eurofins DiscoverX (KINOMEscan)
# Procedure: as §1
# TNIK = target: T8, TNIK (Homo sapiens, UniProt Q9UKE5); settings: 35 at 1 µM; read-out: % inhibition
# T8 construct: purchased Eurofins DiscoverX (KINOMEscan)
# Procedure: as §1
# GCN2(Kin.Dom.2,S808G) = target: T9, GCN2(Kin.Dom.2,S808G) (Homo sapiens, UniProt Q9P2K8, S808G); settings: 35 at 1 µM; read-out: % inhibition
# T9 construct: GCN2(Kin.Dom.2,S808G); purchased Eurofins DiscoverX (KINOMEscan)
# Procedure: as §1
# SRPK1 = target: T10, SRPK1 (Homo sapiens, UniProt Q96SB4); settings: 35 at 1 µM; read-out: % inhibition
# T10 construct: purchased Eurofins DiscoverX (KINOMEscan)
# Procedure: as §1
# PIK3CA(I800L) = target: T11, PIK3CA(I800L) (Homo sapiens, UniProt P42336, I800L); settings: 35 at 1 µM; read-out: % inhibition
# T11 construct: purchased Eurofins DiscoverX (KINOMEscan)
# Procedure: as §1
# CDK4-cyclinD3 = target: T12, CDK4-cyclinD3 (Homo sapiens, UniProt P11802); settings: 35 at 1 µM; read-out: % inhibition
# T12 construct: purchased Eurofins DiscoverX (KINOMEscan)
# Procedure: as §1
# LATS2 = target: T13, LATS2 (Homo sapiens, UniProt Q9NRM7); settings: 35 at 1 µM; read-out: % inhibition
# T13 construct: purchased Eurofins DiscoverX (KINOMEscan)
# Procedure: as §1
# HPK1 = target: T14, HPK1 (Homo sapiens, UniProt Q92918); settings: 35 at 1 µM; read-out: % inhibition
# T14 construct: purchased Eurofins DiscoverX (KINOMEscan)
# Procedure: as §1
# CAMK1G = target: T15, CAMK1G (Homo sapiens, UniProt Q96NX5); settings: 35 at 1 µM; read-out: % inhibition
# T15 construct: purchased Eurofins DiscoverX (KINOMEscan)
# Procedure: as §1
# GRK3 = target: T16, GRK3 (Homo sapiens, UniProt P35626); settings: 35 at 1 µM; read-out: % inhibition
# T16 construct: purchased Eurofins DiscoverX (KINOMEscan)
# Procedure: as §1
# ROCK1 = target: T17, ROCK1 (Homo sapiens, UniProt Q13464); settings: 35 at 1 µM; read-out: % inhibition
# T17 construct: purchased Eurofins DiscoverX (KINOMEscan)
# Procedure: as §1
# AKT1 = target: T18, AKT1 (Homo sapiens, UniProt P31749); settings: 35 at 1 µM; read-out: % inhibition
# T18 construct: purchased Eurofins DiscoverX (KINOMEscan)
# Procedure: as §1
# p38-alpha = target: T19, p38-alpha (Homo sapiens, UniProt Q16539); settings: 35 at 1 µM; read-out: % inhibition
# T19 construct: purchased Eurofins DiscoverX (KINOMEscan)
# Procedure: as §1
# EPHB6 = target: T20, EPHB6 (Homo sapiens, UniProt O15197); settings: 35 at 1 µM; read-out: % inhibition
# T20 construct: purchased Eurofins DiscoverX (KINOMEscan)
# Procedure: as §1
# ERK8 = target: T21, ERK8 (Homo sapiens, UniProt Q8TD08); settings: 35 at 1 µM; read-out: % inhibition
# T21 construct: purchased Eurofins DiscoverX (KINOMEscan)
# Procedure: as §1
# TRKC = target: T22, TRKC (Homo sapiens, UniProt Q16288); settings: 35 at 1 µM; read-out: % inhibition
# T22 construct: purchased Eurofins DiscoverX (KINOMEscan)
# Procedure: as §1
# [2] = target: T23, RSK1(Kin.Dom.1-N-terminal) (Homo sapiens, UniProt Q15418); settings: 35 at 1 µM; read-out: % inhibition
# T23 construct: RSK1(Kin.Dom.1-N-terminal); purchased Eurofins DiscoverX (KINOMEscan)
# Procedure: as §1
# CAMK2A = target: T24, CAMK2A (Homo sapiens, UniProt Q9UQM7); settings: 35 at 1 µM; read-out: % inhibition
# T24 construct: purchased Eurofins DiscoverX (KINOMEscan)
# Procedure: as §1
# [3] = target: T25, ABL1(Q252H)-nonphosphorylated (Homo sapiens, UniProt P00519, Q252H); settings: 35 at 1 µM; read-out: % inhibition
# T25 construct: purchased Eurofins DiscoverX (KINOMEscan)
# Procedure: as §1
# MRCKB = target: T26, MRCKB (Homo sapiens, UniProt Q9Y5S2); settings: 35 at 1 µM; read-out: % inhibition
# T26 construct: purchased Eurofins DiscoverX (KINOMEscan)
# Procedure: as §1
# TAOK3 = target: T27, TAOK3 (Homo sapiens, UniProt Q9H2K8); settings: 35 at 1 µM; read-out: % inhibition
# T27 construct: purchased Eurofins DiscoverX (KINOMEscan)
# Procedure: as §1
# MYLK2 = target: T28, MYLK2 (Homo sapiens, UniProt Q9H1R3); settings: 35 at 1 µM; read-out: % inhibition
# T28 construct: purchased Eurofins DiscoverX (KINOMEscan)
# Procedure: as §1
# WNK3 = target: T29, WNK3 (Homo sapiens, UniProt Q9BYP7); settings: 35 at 1 µM; read-out: % inhibition
# T29 construct: purchased Eurofins DiscoverX (KINOMEscan)
# Procedure: as §1
# ULK2 = target: T30, ULK2 (Homo sapiens, UniProt Q8IYT8); settings: 35 at 1 µM; read-out: % inhibition
# T30 construct: purchased Eurofins DiscoverX (KINOMEscan)
# Procedure: as §1
# SNARK = target: T31, SNARK (Homo sapiens, UniProt Q9H093); settings: 35 at 1 µM; read-out: % inhibition
# T31 construct: purchased Eurofins DiscoverX (KINOMEscan)
# Procedure: as §1
# LRRK2 = target: T32, LRRK2 (Homo sapiens, UniProt Q5S007); settings: 35 at 1 µM; read-out: % inhibition
# T32 construct: purchased Eurofins DiscoverX (KINOMEscan)
# Procedure: as §1
# PIP5K1C = target: T33, PIP5K1C (Homo sapiens, UniProt O60331); settings: 35 at 1 µM; read-out: % inhibition
# T33 construct: purchased Eurofins DiscoverX (KINOMEscan)
# Procedure: as §1
# PRKX = target: T34, PRKX (Homo sapiens, UniProt P51817); settings: 35 at 1 µM; read-out: % inhibition
# T34 construct: purchased Eurofins DiscoverX (KINOMEscan)
# Procedure: as §1
# LIMK1 = target: T35, LIMK1 (Homo sapiens, UniProt P53667); settings: 35 at 1 µM; read-out: % inhibition
# T35 construct: purchased Eurofins DiscoverX (KINOMEscan)
# Procedure: as §1
# CSF1R-autoinhibited = target: T36, CSF1R-autoinhibited (Homo sapiens, UniProt P07333); settings: 35 at 1 µM; read-out: % inhibition
# T36 construct: purchased Eurofins DiscoverX (KINOMEscan)
# Procedure: as §1
# PIP5K1A = target: T37, PIP5K1A (Homo sapiens, UniProt Q99755); settings: 35 at 1 µM; read-out: % inhibition
# T37 construct: purchased Eurofins DiscoverX (KINOMEscan)
# Procedure: as §1
# DCAMKL1 = target: T38, DCAMKL1 (Homo sapiens, UniProt O15075); settings: 35 at 1 µM; read-out: % inhibition
# T38 construct: purchased Eurofins DiscoverX (KINOMEscan)
# Procedure: as §1
# MLK2 = target: T39, MLK2 (Homo sapiens, UniProt Q02779); settings: 35 at 1 µM; read-out: % inhibition
# T39 construct: purchased Eurofins DiscoverX (KINOMEscan)
# Procedure: as §1
# INSR = target: T40, INSR (Homo sapiens, UniProt P06213); settings: 35 at 1 µM; read-out: % inhibition
# T40 construct: purchased Eurofins DiscoverX (KINOMEscan)
# Procedure: as §1
# FLT4 = target: T41, FLT4 (Homo sapiens, UniProt P35916); settings: 35 at 1 µM; read-out: % inhibition
# T41 construct: purchased Eurofins DiscoverX (KINOMEscan)
# Procedure: as §1
# ERK2 = target: T42, ERK2 (Homo sapiens, UniProt P28482); settings: 35 at 1 µM; read-out: % inhibition
# T42 construct: purchased Eurofins DiscoverX (KINOMEscan)
# Procedure: as §1
# T5 sequence (O43353 whole entry): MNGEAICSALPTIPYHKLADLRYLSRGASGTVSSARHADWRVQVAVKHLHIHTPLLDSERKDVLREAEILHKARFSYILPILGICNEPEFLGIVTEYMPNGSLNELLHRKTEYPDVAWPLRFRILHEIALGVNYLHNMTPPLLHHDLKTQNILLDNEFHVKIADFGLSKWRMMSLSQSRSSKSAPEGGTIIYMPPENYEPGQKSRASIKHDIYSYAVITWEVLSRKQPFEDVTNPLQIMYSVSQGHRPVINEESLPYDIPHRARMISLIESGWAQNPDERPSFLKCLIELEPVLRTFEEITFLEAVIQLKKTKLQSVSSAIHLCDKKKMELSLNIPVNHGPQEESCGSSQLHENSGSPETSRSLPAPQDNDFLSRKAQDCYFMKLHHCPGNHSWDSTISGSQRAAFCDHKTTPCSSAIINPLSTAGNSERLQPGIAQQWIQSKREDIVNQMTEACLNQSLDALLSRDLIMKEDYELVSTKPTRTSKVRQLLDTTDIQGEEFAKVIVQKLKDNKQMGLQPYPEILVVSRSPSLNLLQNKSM
# T40 sequence (P06213 28-1382): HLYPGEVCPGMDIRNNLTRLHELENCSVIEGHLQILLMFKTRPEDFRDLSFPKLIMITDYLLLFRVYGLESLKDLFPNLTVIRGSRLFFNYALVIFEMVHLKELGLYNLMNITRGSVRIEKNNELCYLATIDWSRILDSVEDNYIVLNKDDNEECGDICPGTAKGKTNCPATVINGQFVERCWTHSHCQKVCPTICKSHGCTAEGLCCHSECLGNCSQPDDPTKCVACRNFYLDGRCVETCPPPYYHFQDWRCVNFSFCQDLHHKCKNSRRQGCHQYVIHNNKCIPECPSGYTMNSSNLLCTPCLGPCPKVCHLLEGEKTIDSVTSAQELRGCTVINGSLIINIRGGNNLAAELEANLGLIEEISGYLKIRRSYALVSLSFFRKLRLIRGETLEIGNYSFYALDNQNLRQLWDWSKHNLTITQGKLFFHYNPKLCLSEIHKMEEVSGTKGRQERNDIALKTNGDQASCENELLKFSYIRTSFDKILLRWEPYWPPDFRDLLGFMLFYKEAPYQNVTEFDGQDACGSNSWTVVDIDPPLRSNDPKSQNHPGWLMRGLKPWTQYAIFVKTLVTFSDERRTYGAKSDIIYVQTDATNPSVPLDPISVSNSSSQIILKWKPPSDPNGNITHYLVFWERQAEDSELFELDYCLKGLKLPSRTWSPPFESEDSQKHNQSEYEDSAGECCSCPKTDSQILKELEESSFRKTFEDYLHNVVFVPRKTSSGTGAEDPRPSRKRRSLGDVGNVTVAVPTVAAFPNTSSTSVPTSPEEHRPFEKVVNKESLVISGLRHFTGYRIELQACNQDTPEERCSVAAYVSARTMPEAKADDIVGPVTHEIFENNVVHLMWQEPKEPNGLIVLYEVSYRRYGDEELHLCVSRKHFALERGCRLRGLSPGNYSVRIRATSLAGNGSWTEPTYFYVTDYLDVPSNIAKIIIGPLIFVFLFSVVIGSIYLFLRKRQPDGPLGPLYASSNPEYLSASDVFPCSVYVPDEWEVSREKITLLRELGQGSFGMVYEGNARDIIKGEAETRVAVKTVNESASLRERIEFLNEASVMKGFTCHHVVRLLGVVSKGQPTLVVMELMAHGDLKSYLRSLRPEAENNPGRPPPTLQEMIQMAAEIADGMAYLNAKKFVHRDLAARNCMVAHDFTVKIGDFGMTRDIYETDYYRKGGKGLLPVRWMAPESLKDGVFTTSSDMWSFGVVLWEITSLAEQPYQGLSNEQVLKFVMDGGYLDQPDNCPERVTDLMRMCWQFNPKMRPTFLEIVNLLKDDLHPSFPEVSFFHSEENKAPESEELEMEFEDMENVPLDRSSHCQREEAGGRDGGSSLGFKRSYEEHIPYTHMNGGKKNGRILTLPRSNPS
# T10 sequence (Q96SB4 whole entry): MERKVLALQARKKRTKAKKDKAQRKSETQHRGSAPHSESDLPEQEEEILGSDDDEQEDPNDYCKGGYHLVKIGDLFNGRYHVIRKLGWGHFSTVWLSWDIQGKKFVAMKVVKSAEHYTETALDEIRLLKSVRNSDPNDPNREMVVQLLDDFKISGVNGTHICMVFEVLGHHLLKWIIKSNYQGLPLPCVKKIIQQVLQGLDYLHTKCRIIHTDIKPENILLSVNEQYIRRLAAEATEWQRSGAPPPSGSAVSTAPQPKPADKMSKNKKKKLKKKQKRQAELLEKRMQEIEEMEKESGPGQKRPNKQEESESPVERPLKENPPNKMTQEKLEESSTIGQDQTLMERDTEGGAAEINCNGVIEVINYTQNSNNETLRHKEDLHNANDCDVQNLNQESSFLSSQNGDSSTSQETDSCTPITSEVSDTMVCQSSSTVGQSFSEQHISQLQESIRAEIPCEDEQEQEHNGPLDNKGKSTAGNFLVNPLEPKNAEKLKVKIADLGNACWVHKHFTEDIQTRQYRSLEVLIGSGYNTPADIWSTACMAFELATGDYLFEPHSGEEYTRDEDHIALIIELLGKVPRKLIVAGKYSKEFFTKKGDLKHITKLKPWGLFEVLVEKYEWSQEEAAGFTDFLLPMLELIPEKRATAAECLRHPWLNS
# T32 sequence (Q5S007 whole entry): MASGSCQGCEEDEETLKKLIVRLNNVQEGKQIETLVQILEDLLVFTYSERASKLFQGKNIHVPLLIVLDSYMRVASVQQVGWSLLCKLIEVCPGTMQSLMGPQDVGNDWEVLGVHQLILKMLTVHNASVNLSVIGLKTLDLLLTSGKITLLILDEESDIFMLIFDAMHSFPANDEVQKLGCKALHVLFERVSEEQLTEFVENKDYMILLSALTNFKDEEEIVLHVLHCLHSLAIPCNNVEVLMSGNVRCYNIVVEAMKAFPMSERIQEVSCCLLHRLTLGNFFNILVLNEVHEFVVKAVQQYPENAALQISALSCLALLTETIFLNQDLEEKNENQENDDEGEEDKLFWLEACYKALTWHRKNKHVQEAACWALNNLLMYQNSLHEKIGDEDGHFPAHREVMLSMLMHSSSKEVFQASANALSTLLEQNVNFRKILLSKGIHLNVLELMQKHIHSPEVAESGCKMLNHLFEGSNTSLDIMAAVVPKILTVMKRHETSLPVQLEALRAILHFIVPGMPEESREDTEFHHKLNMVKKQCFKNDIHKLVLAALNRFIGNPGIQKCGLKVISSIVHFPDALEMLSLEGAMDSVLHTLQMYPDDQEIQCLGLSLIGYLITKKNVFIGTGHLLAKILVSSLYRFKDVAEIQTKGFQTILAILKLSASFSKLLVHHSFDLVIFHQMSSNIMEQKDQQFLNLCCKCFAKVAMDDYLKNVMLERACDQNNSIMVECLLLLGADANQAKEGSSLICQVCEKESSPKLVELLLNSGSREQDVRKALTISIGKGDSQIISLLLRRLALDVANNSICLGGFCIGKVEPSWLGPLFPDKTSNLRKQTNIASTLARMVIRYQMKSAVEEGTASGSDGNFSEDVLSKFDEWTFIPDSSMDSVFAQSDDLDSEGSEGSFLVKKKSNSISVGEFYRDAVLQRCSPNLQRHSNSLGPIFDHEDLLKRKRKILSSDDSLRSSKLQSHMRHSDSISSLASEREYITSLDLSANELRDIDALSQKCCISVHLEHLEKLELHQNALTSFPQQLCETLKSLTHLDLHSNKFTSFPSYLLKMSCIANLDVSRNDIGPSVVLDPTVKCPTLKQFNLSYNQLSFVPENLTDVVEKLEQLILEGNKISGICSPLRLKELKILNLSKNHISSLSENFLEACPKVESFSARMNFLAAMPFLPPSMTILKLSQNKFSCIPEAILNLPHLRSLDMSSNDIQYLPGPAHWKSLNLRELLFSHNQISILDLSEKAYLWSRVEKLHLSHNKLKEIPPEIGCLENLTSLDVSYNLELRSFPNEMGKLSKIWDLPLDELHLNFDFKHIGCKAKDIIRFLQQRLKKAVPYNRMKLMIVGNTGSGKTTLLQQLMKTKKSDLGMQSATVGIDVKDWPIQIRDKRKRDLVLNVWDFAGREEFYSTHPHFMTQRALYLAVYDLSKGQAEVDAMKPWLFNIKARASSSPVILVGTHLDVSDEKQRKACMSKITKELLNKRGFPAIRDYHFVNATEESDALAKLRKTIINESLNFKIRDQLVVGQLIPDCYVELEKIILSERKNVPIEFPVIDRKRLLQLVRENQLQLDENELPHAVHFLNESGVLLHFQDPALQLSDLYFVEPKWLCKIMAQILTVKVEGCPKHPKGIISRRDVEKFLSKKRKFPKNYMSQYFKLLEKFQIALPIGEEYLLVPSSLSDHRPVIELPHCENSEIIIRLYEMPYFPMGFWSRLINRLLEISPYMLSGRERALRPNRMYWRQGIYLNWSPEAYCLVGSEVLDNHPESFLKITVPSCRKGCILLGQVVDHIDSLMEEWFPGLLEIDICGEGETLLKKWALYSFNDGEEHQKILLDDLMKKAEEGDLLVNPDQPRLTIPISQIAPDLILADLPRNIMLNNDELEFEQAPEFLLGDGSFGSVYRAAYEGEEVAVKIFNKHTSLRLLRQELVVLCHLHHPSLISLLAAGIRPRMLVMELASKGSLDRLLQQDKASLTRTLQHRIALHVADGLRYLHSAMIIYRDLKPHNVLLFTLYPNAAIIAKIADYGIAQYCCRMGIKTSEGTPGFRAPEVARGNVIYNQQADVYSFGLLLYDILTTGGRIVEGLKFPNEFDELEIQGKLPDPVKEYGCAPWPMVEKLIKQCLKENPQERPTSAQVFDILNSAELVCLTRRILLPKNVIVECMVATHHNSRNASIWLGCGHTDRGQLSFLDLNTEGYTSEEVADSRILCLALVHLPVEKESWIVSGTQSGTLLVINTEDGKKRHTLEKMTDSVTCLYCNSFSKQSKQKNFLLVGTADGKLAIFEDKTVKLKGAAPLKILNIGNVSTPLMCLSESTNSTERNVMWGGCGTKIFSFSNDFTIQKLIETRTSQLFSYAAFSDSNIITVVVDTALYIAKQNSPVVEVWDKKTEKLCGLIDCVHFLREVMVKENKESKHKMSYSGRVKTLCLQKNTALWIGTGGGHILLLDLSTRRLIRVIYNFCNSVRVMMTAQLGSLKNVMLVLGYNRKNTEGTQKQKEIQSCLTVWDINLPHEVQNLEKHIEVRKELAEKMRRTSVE
smiles,measurement,setting,value
"Brc1ccc2nccc(Nc3ccc4cn[nH]c4c3)c2c1 [Compound 35, 6-Bromo-N-(1H-indazol-6-yl)quinolin-4-amine]",activity at 1 µM,AKT3,100%
same,activity at 1 µM,PLK2,100%
same,activity at 1 µM,CAMKK1,100%
same,activity at 1 µM,RET(V804M),100%
same,activity at 1 µM,"RIPK2; 35 at 1 µM, read-out: % inhibition",29%
same,inhibition at 1 µM,"RIPK2; KinomeScan, screened at 1 μM, read-out: kinases inhibited at 1 μM: RIPK2",71%
same,activity at 1 µM,SIK2,97%
same,activity at 1 µM,[1],100%
same,activity at 1 µM,TNIK,97%
same,activity at 1 µM,"GCN2(Kin.Dom.2,S808G)",59%
same,activity at 1 µM,SRPK1,100%
same,activity at 1 µM,PIK3CA(I800L),76%
same,activity at 1 µM,CDK4-cyclinD3,100%
same,activity at 1 µM,LATS2,88%
same,activity at 1 µM,HPK1,100%
same,activity at 1 µM,CAMK1G,100%
same,activity at 1 µM,GRK3,76%
same,activity at 1 µM,ROCK1,71%
same,activity at 1 µM,AKT1,100%
same,activity at 1 µM,p38-alpha,100%
same,activity at 1 µM,EPHB6,100%
same,activity at 1 µM,ERK8,100%
same,activity at 1 µM,TRKC,82%
same,activity at 1 µM,[2],100%
same,activity at 1 µM,CAMK2A,100%
same,activity at 1 µM,[3],58%
same,activity at 1 µM,MRCKB,100%
same,activity at 1 µM,TAOK3,97%
same,activity at 1 µM,MYLK2,100%
same,activity at 1 µM,WNK3,92%
same,activity at 1 µM,ULK2,94%
same,activity at 1 µM,SNARK,100%
same,activity at 1 µM,LRRK2,100%
same,activity at 1 µM,PIP5K1C,95%
same,activity at 1 µM,PRKX,100%
same,activity at 1 µM,LIMK1,100%
same,activity at 1 µM,CSF1R-autoinhibited,100%
same,activity at 1 µM,PIP5K1A,100%
same,activity at 1 µM,DCAMKL1,99%
same,activity at 1 µM,MLK2,100%
same,activity at 1 µM,INSR,99%
same,activity at 1 µM,FLT4,100%
same,activity at 1 µM,ERK2,100%
